SMILES strings stand for the structures.

These results are taken from patent US20100029643A1 (ASTRAZENECA AB, priority 2006, published 2010).

One test deals with T1, Edg-1/S1P1 receptor (Homo sapiens, UniProt P21453).
T1 construct: expressed in transfected cells; host or cells: human osteogenic sarcoma U2OS cells: Edg-1 Transfluor U2OS WT Clone #37 (assay I), Edg-1 Transfluor U2OS Clone #3 (assay II)
T1 sequence (P21453 whole entry): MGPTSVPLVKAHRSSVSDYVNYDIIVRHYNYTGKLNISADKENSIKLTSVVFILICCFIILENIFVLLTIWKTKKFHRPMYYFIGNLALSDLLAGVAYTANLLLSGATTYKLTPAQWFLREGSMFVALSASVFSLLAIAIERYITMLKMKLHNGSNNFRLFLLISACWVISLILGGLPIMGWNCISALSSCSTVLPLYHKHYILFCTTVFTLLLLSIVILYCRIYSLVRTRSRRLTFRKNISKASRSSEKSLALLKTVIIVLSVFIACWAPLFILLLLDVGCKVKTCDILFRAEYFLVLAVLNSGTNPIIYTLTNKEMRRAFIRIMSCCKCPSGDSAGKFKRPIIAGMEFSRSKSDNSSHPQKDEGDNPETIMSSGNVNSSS
The test can be described thus: In vitro cell based receptor activation assay - Transfluor assay (assay I or II; beta-arrestin GFP relocalization after S1P stimulation). Conditions: at 3.30 μM (run with this as top concentration). In short, it runs like this: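 U2OS cells overexpressing S1P1 with a beta-arrestin-GFP construct were pre-incubated with compound for 15 min at room temperature, then stimulated with S1P for 45 min at 37 °C. In assay I, final S1P was 375 nM or 750 nM and compound was a 9-point 3-fold series from 100 μM, in 1% DMSO. Cells were fixed and Hoechst-stained, GFP relocalization was imaged, and EC50 values were fitted.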
The term inhibition denotes the relative decrease from the control value, in per cent. Regarding `CCn1c([C@@H](C)NS(=O)(=O)C2=Cc3ccccc3CC2)nc2ccc(C(F)(F)F)cc21` [Example 119, M-{(1R)-1-[1-Ethyl-6-(trifluoromethyl)-1H-benzimidazol-2-yl]ethyl}-3,4-diyhydronaphthalene-2-sulfonamide], testing at 3.3 µM gave an inhibition of 71.7%. On to `CCn1cc(S(=O)(=O)N[C@H](C)c2nc3ccc(C(F)(F)F)cc3n2CC)cn1` [Example 121, 1-ethyl-N-{(1R)-1-[1-Ethyl-6-(trifluoromethyl)-1H-benzimidazol-2-yl]ethyl}-1H-pyrazole-4-sulfonamide], for which at 3.3 µM the inhibition was 74%.

Still in this test, the particulars now being: at 3.50 μM (titrated from top concentration 10 μM).
Regarding `CCn1c([C@@H](C)NS(=O)(=O)c2cnn(C(C)C)c2C)nc2ccc(C(F)(F)F)cc21` [Example 118, N-{(1R)-1-[1-Ethyl-6-(trifluoromethyl)-1H-benzimidazol-2-yl]ethyl}-1-isopropyl-5-methyl-1H-pyrazole-4-sulfonamide], 3.5 µM produced 78% inhibition. Compound `CCn1c([C@@H](C)NS(=O)(=O)c2cccc(F)c2)nc2ccc(C(F)(F)F)cc21` [Example 120, N-{(1R)-1-[1-Ethyl-6-(trifluoromethyl)-1H-benzimidazol-2-yl]ethyl}-3-fluorobenzenesulfonamide] gave an inhibition at 3.5 µM of 90.9%.

Take `CCn1c([C@@H](C)NS(=O)(=O)c2ccc(OC)cc2)nc2ccc(C(F)(F)F)cc21` [Example 122, N-{(1R)-1-[1-Ethyl-6-(trifluoromethyl)-1H-benzimidazol-2-yl]ethyl}-4-methoxybenzenesulfonamide]: the inhibition at 3.5 µM amounted to 91.4%. Same read-out and setting: with `CCn1c([C@@H](C)NS(=O)(=O)c2cccc(Cl)c2)nc2ccc(C(F)(F)F)cc21` [Example 123, 3-Chloro-N-{(1R)-1-[1-ethyl-6-(trifluoromethyl)-1H-benzimidazol-2-yl]ethyl}benzenesulfonamide] the figure was 96.7%. As to `CCn1c([C@@H](C)NS(=O)(=O)c2ccc(OC)c(OC)c2)nc2ccc(C(F)(F)F)cc21` [Example 124, N-{(1R)-1-[1-Ethyl-6-(trifluoromethyl)-1H-benz-imidazol-2-yl]ethyl}-3,4-di-methoxybenzenesulfonamide], the inhibition at 3.5 µM came out at 79.4%. As for `CCn1c([C@@H](C)NS(=O)(=O)c2ccccn2)nc2ccc(C(F)(F)F)cc21` [Example 125, N-{(1R)-1-[1-Ethyl-6-(trifluoromethyl)-1H-benzimidazol-2-yl]ethyl}pyridine-2-sulfonamide], the inhibition at 3.5 µM is 14.9%. `CCn1c([C@@H](C)NS(=O)(=O)c2cccnc2)nc2ccc(C(F)(F)F)cc21` [Example 126, (R)—N-(1-(1-ethyl-6-(trifluoromethyl)-1H-benzo[d]imidazol-2-yl)ethyl)pyridine-3-sulfonamide] yielded an inhibition at 3.5 µM of 92.8%. Same read-out and setting: the same measure for `CCn1c([C@@H](C)NS(=O)(=O)c2ccncc2)nc2ccc(C(F)(F)F)cc21` [Example 127, (R)-N-(1-(1-Ethyl-6-(trifluoromethyl)-1H-benzo[d]imidazol-2-yl)ethyl)pyridine-4-sulfonamide]: 86.4%; for `CCn1c([C@@H](C)NS(=O)(=O)c2cnc(NN)c(Cl)c2)nc2ccc(C(F)(F)F)cc21` [Example 128, R-5-chloro-N-(1-(1-ethyl-6-(trifluoromethyl)-1H-benzo[d]imidazol-2-yl)ethyl)-6-hydrazinylpyridine-3-sulfonamide]: 94.5%.

As for `CCn1c([C@@H](C)NS(=O)(=O)c2cncc(Cl)c2)nc2ccc(C(F)(F)F)cc21` [Example 129, R-5-chloro-N-(1-(1-ethyl-6-(trifluoromethyl)-1H-benzo[d]imidazol-2-yl)ethyl)pyridine-3-sulfonamide], at 3.5 µM the inhibition was 90.3%. Take `CCn1c(C(C)NS(=O)(=O)c2ccc(CN3CCOCC3)cc2)nc2ccc(C(F)(F)F)cc21` (stereo not drawn) [Example 130, N-(1-(1-ethyl-6-(trifluoromethyl)-1H-benzo[d]imidazol-2-yl)ethyl)-4-(morpholinomethyl)benzenesulfonamide]: the inhibition at 3.5 µM came out at 10.8%. `CCn1c([C@@H](C)NS(=O)(=O)c2ccc(S(C)(=O)=O)cc2)nc2ccc(C(F)(F)F)cc21` [Example 131, (R)-N-(1-(1-Ethyl-6-(trifluoromethyl)-1H-benzo[d]imidazol-2-yl)ethyl)-4-(methylsulfonyl)-benzenesulfonamide]: the inhibition at 3.5 µM turned out to be 95%. Compound `CCn1c([C@@H](C)NS(=O)(=O)c2ccc(F)cc2)nc2cnc(OC)cc21` [Example 132, (R)-N-(1-(1-Ethyl-6-methoxy-1H-imidazo[4,5-c]pyridin-2-yl)ethyl)-4-fluorobenzenesulfonamide] gave an inhibition at 3.5 µM of 86.2%. For the compound `C#Cc1ccc(S(=O)(=O)N[C@H](C)c2nc3ccc(C(F)(F)F)cc3n2CC)cn1` [Example 133, (R)-N-(1-(1-Ethyl-6-(trifluoromethyl)-1H-benzo[d]imidazol-2-yl)ethyl)-6-ethynylpyridine-3-sulfonamide], the inhibition at 3.5 µM turned out to be 86.4%. In turn, `CCn1c([C@@H](C)NS(=O)(=O)c2ccc(F)c(CN)c2)nc2ccc(C(F)(F)F)cc21` [Example 134, 3-(Aminomethyl)-N-[(1R)-1-[1-ethyl-6-(trifluoromethyl)-1H-benzimidazol-2-yl]ethyl]-4-fluorobenzenesulfonamide] came in with an inhibition at 3.5 µM of 95%.

`CCn1c(C(C)(C)NS(=O)(=O)c2ccc(Cl)cc2)nc2ccc(C(F)(F)F)cc21` [Example 136, 4-Chloro-N-{1-[1-ethyl-6-(trifluoromethyl)-1H-benzimidazol-2-yl]-1-methylethyl}benzenesulfon-amide] showed an inhibition at 3.5 µM of 82.9%. In turn, `CCn1c(C(C)(C)NS(=O)(=O)c2ccc(F)cc2)nc2ccc(C(F)(F)F)cc21` [Example 137, N-[1-(1-Ethyl-6-trifluoromethyl-1H-benzoimidazol-2-yl)-1-methyl-ethyl]-4-fluoro-benzenesulfonamide] returned an inhibition at 3.5 µM of 88.8%. On the same count and under the same terms, the same measure for `CCn1c(C(C)(C)NS(=O)(=O)c2ccc(C#N)cc2)nc2ccc(C(F)(F)F)cc21` [Example 138, 4-Cyano-N-[1-(1-ethyl-6-trifluoromethyl-1H-benzoimidazol-2-yl)-1-methyl-ethyl]-benzenesulfonamide]: 78.4%; for `CCn1c(C(C)(C)NS(=O)(=O)c2ccccc2)nc2ccc(C(F)(F)F)cc21` [Example 139, N-{(1R)-1-[1-Ethyl-6-(trifluoromethyl)-1H-benzimidazol-2-yl]-1-methyl-ethyl}benzenesulfonamide]: 88.3%; for `CCn1c(C(C)(C)NS(=O)(=O)c2ccc(C#N)nc2)nc2ccc(C(F)(F)F)cc21` [Example 140, 6-Cyano-N-(2-(1-ethyl-6-(trifluoromethyl)-1H-0 benzo[d]imidazol-2-yl)propan-2-yl)pyridine-3-sulfonamide]: 82.9%. `CCn1c(C(C)(C)NS(=O)(=O)c2ccc(C(N)=O)nc2)nc2ccc(C(F)(F)F)cc21` [Example 141, 5-(N-(2-(1-Ethyl-6-(trifluoromethyl)-1H-benzo[d]imidazol-2-yl)propan-2-yl)sulfamoyl)picolinamide] gave an inhibition at 3.5 µM of 82.6%. Turning to `CCn1c(C2(NS(=O)(=O)c3ccc(Cl)cc3)CC2)nc2ccc(C(F)(F)F)cc21` [Example 142, 4-Chloro-N-{1-[1-ethyl-6-(trifluoromethyl)-1H-benzimidazol-2-yl]cyclopropyl}benzenesulfon amide], testing at 3.5 µM gave an inhibition of 80.5%. Compound `CCn1c(C2(NS(=O)(=O)c3ccc(F)cc3)CCC2)nc2ccc(C(F)(F)F)cc21` [Example 143, N-[1-(1-Ethyl-6-trifluoromethyl-1H-benzoimidazol-2-yl)-cyclobutyl]-4-fluoro-benzenesulfonamide] returned an inhibition at 3.5 µM of 84.7%. Take `CCn1c([C@@H](C)NS(=O)(=O)c2ccc(Cl)cc2)nc2cnc(OC)cc21` [Example 144, (R)-4-Chloro-N-(1-(1-ethyl-6-methoxy-1H-imidazo[4,5-c]pyridin-2-yl)ethyl)benzenesulfonamide]: the inhibition at 3.5 µM was 90.7%. As to `CCn1c([C@@H](C)NS(=O)(=O)c2ccc(C#N)cc2)nc2cnc(C(F)(F)F)cc21` [Example 146, (R)-4-Cyano-N-(1-(1-ethyl-6-(trifluoromethyl)-1H-imidazo[4,5-c]pyridin-2-yl)ethyl)benzenesulfonamide], the inhibition at 3.5 µM was 91.8%. The compound `CCn1c([C@@H](C)NS(=O)(=O)c2ccc(Cl)cc2)nc2cnc(C(F)(F)F)cc21` [Example 147, (R)-4-Chloro-N-(1-(1-ethyl-6-(trifluoromethyl)-1H-imidazo[4,5-c]pyridin-2-yl)ethyl)benzenesulfonamide] returned an inhibition at 3.5 µM of 95.9%. Still for that read-out and setting: the same measure for `CCn1c([C@@H](C)NS(=O)(=O)c2ccc(C#N)nc2)nc2cnc(C(F)(F)F)cc21` [Example 148, (R)-6-Cyano-N-(1-(1-ethyl-6-(trifluoromethyl)-1H-imidazo[4,5-c]pyridin-2-yl)ethyl)pyridine-3-sulfonamide]: 93%. `CCn1c([C@@H](C)NS(=O)(=O)c2ccc(C(N)=O)nc2)nc2cnc(C(F)(F)F)cc21` [Example 149, (R)-5-(N-(1-(1-Ethyl-6-(trifluoromethyl)-1H-imidazo[4,5-c]pyridin-2-yl)ethyl)sulfamoyl)picolinamide] returned an inhibition at 3.5 µM of 93.3%. Compound `CCn1c([C@@H](C)NS(=O)(=O)c2ccc(C#N)cc2)nc2cnc(OC)cc21` [Example 150, (R)-4-Cyano-N-(1-(1-ethyl-6-methoxy-1H-imidazo[4,5-c]pyridin-2-yl)ethyl)benzenesulfonamide] showed an inhibition at 3.5 µM of 91.6%. Compound `CCn1c([C@@H](C)NS(=O)(=O)c2ccc(C#N)nc2)nc2cnc(OC)cc21` [Example 151, (R)-6-Cyano-N-(1-(1-ethyl-6-methoxy-1H-imidazo[4,5-c]pyridin-2-yl)ethyl)pyridine-3-sulfonamide] came in with an inhibition at 3.5 µM of 91.7%. `CCn1c([C@@H](C)NS(=O)(=O)c2ccc(C(N)=O)nc2)nc2cnc(OC)cc21` [Example 152] showed an inhibition at 3.5 µM of 91.8%.
